Assay results as given in patent US8871802B2, “Naphthoquinones for disease therapies” (Zhoushan HaiZhongZhou Xinsheng Pharmaceuticals Co., Ltd., priority 2010, dated 2014).

Experiments:
Type in all cases: cell-based
[1] = tested on: QGY-7701; experiment: MTT cell viability, QGY-7701 (liver cancer); conditions: QGY7701, 48 hour incubation, read-out: Drug concentrations for 50% cell viability (IC50)
Protocol: (§1) In vitro anticancer activity of the compound of Formula I was performed using popular MTT method (Archives of Biochemistry and Biophysics, 1993, 303, […]) against lung cancer, colorectal cancer, cervical cancer, osteosarcoma, leiomyosarcoma, malignant melanoma, pancreas cancer, prostate cancer, nasopharyngeal cancer, glioma, esophageal cancer, stomach cancer, and liver cancer.
(§2) Cell Culture: A549, DLD1, SW480, LOVO, HT-29, Hela, U-20S, MES-SA, SK-MEL-28, Panc-1, DU-145, CNE, U251, Eca-109, MGC80-3, QGY-7701, BEL-7404, PLC/PRF/5, Huh-7, and SGC-7901 cells were maintained in Dulbecco's Modified Eagle Medium (DMEM) (imported from Invitrogen, Carlsbad, Calif., USA) supplemented with 10% fetal bovine serum (FBS) (Si Ji Qing, Hangzhou, China) and 1% penicillin/streptomycin/amphotercin B (imported from Invitrogen, Carlsbad, Calif., USA). Cell Viability Determination: Popular MTT method (Archives of Biochemistry and Biophysics. 1993, 303, 474-482) was used to screen the in vitro effects of the invented drugs. Briefly, 5000 to 10000 cells were inoculated per well in a 96-well plate. After overnight incubation, drug was added to the wells at final concentration of 10 μM, 5 μM, 2.5 μM, 1.25 μM, or 1 μM, 0.75 μM, 0.5 μM and 0.25 μM in complete culture medium. […] The absorbance of each well at 570 nm wavelength was measured by a micro-plate reader after gentle shaking for 20 minutes. […]

[2] = tested on: DLD1; experiment: MTT cell viability, DLD1 (colorectal cancer); conditions: Homo sapiens, DLD-1, 48 hour incubation, read-out: Drug concentrations for 50% cell viability (IC50)
Protocol: as §1
(§3) Cell Culture: A549, DLD1, SW480, LOVO, HT-29, Hela, U-20S, MES-SA, SK-MEL-28, Panc-1, DU-145, CNE, U251, Eca-109, MGC80-3, QGY-7701, BEL-7404, PLC/PRF/5, Huh-7, and SGC-7901 cells were maintained in Dulbecco's Modified Eagle Medium (DMEM) (imported from Invitrogen, Carlsbad, Calif., USA) supplemented with 10% fetal bovine serum (FBS) (Si Ji Qing, Hangzhou, China) and 1% penicillin/streptomycin/amphotercin B (imported from Invitrogen, Carlsbad, Calif., USA). Cell Viability Determination: Popular MTT method (Archives of Biochemistry and Biophysics. 1993, 303, 474-482) was used to screen the in vitro effects of the invented drugs. Briefly, 5000 to 10000 cells were inoculated per well in a 96-well plate. After overnight incubation, drug was added to the wells at final concentration of 10 μM, 5 μM, 2.5 μM, 1.25 μM, or 1 μM, 0.75 μM, 0.5 μM and 0.25 μM in complete culture medium. Each dose level covered 4 equivalent wells. After 48 hour incubation, one tenth volume of 5 mg/mL MTT (thiazolyl blue tetrazolium bromide, Sigma-Aldrich) stock solution was added, and incubation continued for 2 hours. Then medium was removed and 100 μL of isopropanol solution comprising 86% isopropanol, 4% aqueous 1N HCl and 10% aqueous solution of 10% SDS was added. The absorbance of each well at 570 nm wavelength was measured by a micro-plate reader after gentle shaking for 20 minutes. Drug concentrations of 50% cell viability (IC50) were calculated by LOGIT method.

[3] = tested on: MGC80-3; experiment: MTT cell viability, MGC80-3 (stomach cancer); conditions: Homo sapiens, MGC-803, 48 hour incubation, read-out: Drug concentrations for 50% cell viability (IC50)
Protocol: as §1, §2

[4] = tested on: PLC/PRF/5; experiment: MTT cell viability, PLC/PRF/5 (liver cancer); conditions: Homo sapiens, 48 hour incubation, read-out: Drug concentrations for 50% cell viability (IC50)
Protocol: as §1, §2

[5] = tested on: BEL-7404; experiment: MTT cell viability, BEL-7404 (liver cancer); conditions: Homo sapiens, 48 hour incubation, read-out: Drug concentrations for 50% cell viability (IC50)
Protocol: as §1, §2

[6] = tested on: SW480; experiment: MTT cell viability, SW480 (colorectal cancer); conditions: Homo sapiens, 48 hour incubation, read-out: Drug concentrations for 50% cell viability (IC50)
Protocol: as §1, §2

[7] = tested on: Eca-109; experiment: MTT cell viability, Eca-109 (esophageal cancer); conditions: Homo sapiens, 48 hour incubation, read-out: Drug concentrations for 50% cell viability (IC50)
Protocol: as §1, §2

[8] = tested on: Panc-1; experiment: MTT cell viability, Panc-1 (pancreatic cancer); conditions: Homo sapiens, 48 hour incubation, read-out: Drug concentrations for 50% cell viability (IC50)
Protocol: as §1, §2

[9] = tested on: LOVO; experiment: MTT cell viability, LOVO (colorectal cancer); conditions: Homo sapiens, 48 hour incubation, read-out: Drug concentrations for 50% cell viability (IC50)
Protocol: as §1, §2

[10] = tested on: Huh-7; experiment: MTT cell viability, Huh-7 (liver cancer); conditions: Homo sapiens, 48 hour incubation, read-out: Drug concentrations for 50% cell viability (IC50)
Protocol: as §1, §2

[11] = tested on: HT-29; experiment: MTT cell viability, HT-29 (colorectal cancer); conditions: Homo sapiens, 48 hour incubation, read-out: Drug concentrations for 50% cell viability (IC50)
Protocol: as §1, §2

[12] = tested on: U-20S; experiment: MTT cell viability, U-20S (osteosarcoma); conditions: 48 hour incubation, read-out: Drug concentrations for 50% cell viability (IC50)
Protocol: as §1, §3

[13] = tested on: DU-145; experiment: MTT cell viability, DU-145 (prostate cancer); conditions: Homo sapiens, 48 hour incubation, read-out: Drug concentrations for 50% cell viability (IC50)
Protocol: as §1, §3

[14] = tested on: MES-SA; experiment: MTT cell viability, MES-SA (leiomyosarcoma); conditions: Homo sapiens, 48 hour incubation, read-out: Drug concentrations for 50% cell viability (IC50)
Protocol: as §1, §2

[15] = tested on: SK-MEL-28; experiment: MTT cell viability, SK-MEL-28 (malignant melanoma); conditions: Homo sapiens, 48 hour incubation, read-out: Drug concentrations for 50% cell viability (IC50)
Protocol: as §1, §2

[16] = tested on: A549; experiment: MTT cell viability, A549 (lung cancer); conditions: Homo sapiens, 48 hour incubation, read-out: Drug concentrations for 50% cell viability (IC50)
Protocol: as §1, §3

[17] = tested on: CNE; experiment: MTT cell viability, CNE (nasopharyngeal cancer); conditions: Homo sapiens, 48 hour incubation, read-out: Drug concentrations for 50% cell viability (IC50)
Protocol: as §1, §2

[18] = tested on: U251; experiment: MTT cell viability, U251 (glioma); conditions: Homo sapiens, U-251, 48 hour incubation, read-out: Drug concentrations for 50% cell viability (IC50)
Protocol: as §1, §2

[19] = tested on: SGC-7901; experiment: MTT cell viability, SGC-7901 (stomach cancer); conditions: Homo sapiens, 48 hour incubation, read-out: Drug concentrations for 50% cell viability (IC50)
Protocol: as §1, §2

[20] = tested on: Hela; experiment: MTT cell viability, Hela (cervical cancer); conditions: Homo sapiens, 48 hour incubation, read-out: Drug concentrations for 50% cell viability (IC50)
Protocol: as §1, §2

IC50 [1]	IC50 [2]	IC50 [3]	IC50 [4]	IC50 [5]	IC50 [6]	IC50 [7]	IC50 [8]	IC50 [9]	IC50 [10]	IC50 [11]	IC50 [12]	IC50 [13]	IC50 [14]	IC50 [15]	IC50 [16]	IC50 [17]	IC50 [18]	IC50 [19]	IC50 [20]	SMILES
3500 nM	290 nM	1200 nM	2500 nM	1110 nM	1170 nM	3450 nM	1600 nM	2150 nM	2500 nM	720 nM	430 nM	430 nM	1200 nM	220 nM	2500 nM	1360 nM	1000 nM	2500 nM	1200 nM	CS(=O)(=O)c1cc2c(o1)C(=O)c1ccccc1C2=O [Compound I, 2-methylsulfonyl-naphtho[2,3-b]furan-4,9-dione]
–	1000 nM	–	–	–	–	–	–	–	–	–	1250 nM	3200 nM	–	–	6890 nM	–	–	–	–	C[S+]([O-])c1oc2c(c1-c1ccccc1)C(=O)c1ccccc1C2=O (stereo not drawn) [Compound XVI, 2-methylsulfinyl-3-phenyl-naphtho[2,3-b]furan-4,9-dione]
2500 nM	280 nM	1200 nM	2000 nM	1100 nM	1250 nM	3800 nM	1250 nM	4570 nM	2500 nM	780 nM	390 nM	500 nM	1000 nM	240 nM	2500 nM	1250 nM	1000 nM	2500 nM	1490 nM	C[S+]([O-])c1cc2c(o1)C(=O)c1ccccc1C2=O (stereo not drawn) [Compound II, 2-methylsulfinyl-naphtho[2,3-b]furan-4,9-dione]
–	2510 nM	–	–	–	–	–	–	–	–	–	3610 nM	5000 nM	–	–	> 10000 nM	–	–	–	–	CS(=O)(=O)c1oc2c(c1-c1ccccc1)C(=O)c1ccccc1C2=O [Compound XV, 2-methylsulfonyl-3-phenyl-naphtho[2,3-b]furan-4,9-dione]
